Tests used:
[1] = target: T1, Nitric oxide synthase, inducible (Mus musculus, UniProt P29477); assay: Inhibition of iNOS in mouse ANA1 cells; type: cell-based
T1 sequence (P29477 whole entry): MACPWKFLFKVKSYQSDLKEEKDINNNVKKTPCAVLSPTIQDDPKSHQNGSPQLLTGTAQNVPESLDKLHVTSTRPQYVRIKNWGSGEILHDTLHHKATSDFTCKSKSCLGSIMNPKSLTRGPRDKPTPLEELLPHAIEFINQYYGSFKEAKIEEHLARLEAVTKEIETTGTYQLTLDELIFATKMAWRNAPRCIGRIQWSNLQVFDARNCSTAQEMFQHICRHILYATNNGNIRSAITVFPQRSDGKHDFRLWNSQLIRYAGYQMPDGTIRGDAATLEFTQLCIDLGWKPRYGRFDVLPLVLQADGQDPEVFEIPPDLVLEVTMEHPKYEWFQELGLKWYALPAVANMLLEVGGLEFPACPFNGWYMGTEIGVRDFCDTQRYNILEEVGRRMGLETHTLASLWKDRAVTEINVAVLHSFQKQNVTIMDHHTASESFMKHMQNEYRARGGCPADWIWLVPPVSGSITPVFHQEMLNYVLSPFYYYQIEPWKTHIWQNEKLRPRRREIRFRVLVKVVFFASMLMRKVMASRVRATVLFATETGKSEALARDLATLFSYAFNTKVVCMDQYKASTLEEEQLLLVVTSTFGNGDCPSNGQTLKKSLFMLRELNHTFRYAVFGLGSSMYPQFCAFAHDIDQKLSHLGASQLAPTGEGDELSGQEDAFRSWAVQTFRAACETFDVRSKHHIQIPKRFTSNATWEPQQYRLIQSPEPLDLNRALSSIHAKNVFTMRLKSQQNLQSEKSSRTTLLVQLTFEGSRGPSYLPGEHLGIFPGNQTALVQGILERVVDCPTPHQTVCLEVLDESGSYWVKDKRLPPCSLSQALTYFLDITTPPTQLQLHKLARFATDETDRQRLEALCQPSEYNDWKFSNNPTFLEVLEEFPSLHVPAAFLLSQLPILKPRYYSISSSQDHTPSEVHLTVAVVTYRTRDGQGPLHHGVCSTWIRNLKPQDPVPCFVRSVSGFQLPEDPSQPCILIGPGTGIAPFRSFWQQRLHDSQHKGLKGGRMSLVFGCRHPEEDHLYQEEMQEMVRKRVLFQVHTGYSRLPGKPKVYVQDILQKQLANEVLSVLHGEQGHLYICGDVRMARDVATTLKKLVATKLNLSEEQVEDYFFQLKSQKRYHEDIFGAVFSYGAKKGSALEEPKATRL

[2] = target: Proto-oncogene tyrosine-protein kinase Src (Homo sapiens, UniProt P12931); assay: Inhibition of cSrc
Chain of Proto-oncogene tyrosine-protein kinase Src (P12931 2-536 limits assumed): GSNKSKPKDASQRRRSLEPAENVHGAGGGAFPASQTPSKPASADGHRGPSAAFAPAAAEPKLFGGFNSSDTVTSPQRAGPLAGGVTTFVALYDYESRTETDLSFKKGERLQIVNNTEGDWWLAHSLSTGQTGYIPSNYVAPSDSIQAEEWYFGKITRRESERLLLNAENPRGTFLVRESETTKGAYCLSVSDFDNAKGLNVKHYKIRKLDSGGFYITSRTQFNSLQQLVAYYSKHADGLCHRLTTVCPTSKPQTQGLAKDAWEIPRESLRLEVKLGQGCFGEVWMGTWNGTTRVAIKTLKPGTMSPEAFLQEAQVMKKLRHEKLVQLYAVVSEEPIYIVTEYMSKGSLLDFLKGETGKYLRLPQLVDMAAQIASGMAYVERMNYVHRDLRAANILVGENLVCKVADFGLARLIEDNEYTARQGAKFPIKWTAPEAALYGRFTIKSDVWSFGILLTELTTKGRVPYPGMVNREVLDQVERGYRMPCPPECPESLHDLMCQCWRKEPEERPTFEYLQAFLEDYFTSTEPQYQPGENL

AGS = assay: Antiproliferative activity against human AGS cells assessed as survival at 10 uM by sulforhodamine B assay; type: functional; conditions: read-out: Activity
HepG2 = assay: Antiproliferative activity against human HepG2 cells assessed as survival at 10 uM by sulforhodamine B assay; type: functional; conditions: read-out: Activity
PC-3 = assay: Antiproliferative activity against human PC3 cells assessed as survival at 10 uM by sulforhodamine B assay; type: functional; conditions: read-out: Activity
HT-29 = assay: Antiproliferative activity against human HT-29 cells assessed as survival at 10 uM by sulforhodamine B assay; type: functional; conditions: read-out: Activity
A549 = assay: Antiproliferative activity against human A549 cells assessed as survival at 10 uM by sulforhodamine B assay; type: functional; conditions: read-out: Activity

IC50 [1] [µM] | IC50 [2] [µM] | SMILES | viability at 10 µM (AGS) [%] | viability at 10 µM (HepG2) [%] | viability at 10 µM (PC-3) [%] | viability at 10 µM (HT-29) [%] | viability at 10 µM (A549) [%]
89.1 | 0.0366 | Cc1cc2c(Nc3ccc4nc(N)sc4c3)c(C#N)cnc2cc1OCCCN1CC(C)NC(C)C1 (configuration not stated) |  |  |  |  | 
10.5 | 0.267 | Cc1cc2c(Nc3ccc4nc(N)sc4c3)c(C#N)cnc2cc1OCCCN1CC(C)CC(C)C1 (configuration not stated) | 65.5 | 42.2 | 63 | 60.6 | 53.6
12.7 | 0.0534 | Cc1cc2c(Nc3ccc4nc(N)sc4c3)c(C#N)cnc2cc1OCCCN1CCC(C)CC1 |  |  |  |  | 
13.2 | 0.143 | Cc1cc2c(Nc3ccc4nc(N)[nH]c4c3)c(C#N)cnc2cc1OCCCN(C)C |  |  |  |  | 
24.8 | 0.159 | Cc1cc2c(Nc3ccc4nc(N)[nH]c4c3)c(C#N)cnc2cc1OCCCN1CCCC1 |  |  |  |  | 
105 | 0.0207 | COc1cc2c(Nc3ccc4nc(N)sc4c3)c(C#N)cnc2cc1OCCCN1CCNCC1 |  |  |  |  | 
26.7 | 0.0348 | Cc1cc2c(Nc3ccc4nc(N)sc4c3)c(C#N)cnc2cc1OCCN1CCCCC1 | 61 | 55.4 | 77.7 | 42.7 | 55.4
37.1 | 0.0506 | Cc1cc2c(Nc3ccc4nc(N)sc4c3)c(C#N)cnc2cc1OCCCN1CCN(C)CC1 | 68.1 | 40.5 | 59.5 | 31.6 | 64.1
31.8 | 0.0811 | Cc1cc2c(Nc3ccc4nc(N)sc4c3)c(C#N)cnc2cc1OCCCN1CCOCC1 |  |  |  |  | 
17.3 | 0.129 | Cc1cc2c(Nc3ccc4nc(N)sc4c3)c(C#N)cnc2cc1OCCCN1CCNCC1 |  |  |  |  | 
46.8 | 0.042 | CCN(CC)CCCOc1cc2ncc(C#N)c(Nc3ccc4nc(N)sc4c3)c2cc1C |  |  |  |  | 
 |  | COc1cc(Nc2c(C#N)cnc3cc(OCCCN4CCN(C)CC4)c(OC)cc23)c(Cl)cc1Cl [BOSUTINIB] | 3.8 | 9.2 | 7.81 | 2.84 | 9.32

Reference: ChEMBL document CHEMBL1152265, “The design, synthesis and biological evaluation of 7-alkoxy-4-heteroarylamino-3-cyanoquinolines as dual inhibitors of c-Src and iNOS” (Bioorg Med Chem Lett, 2008)
